In BindingDB's records for patent US20250388560 (Hitgen, 2025):

These molecules were tested against E3 ubiquitin-protein ligase TRIM21 (UniProt P19474) (assay: Detection of SPR Binding Assays (Surface Plasmon Resonance Binding Assay) of TRIM21 Compounds).
Procedure: The protein fixation buffer, the running buffer A and the running buffer B were prepared and filtered through a […] membrane prior to use. TRIM21 Protein FixationThe running buffer A was used as the protein fixation buffer. The protein fixation buffer and the TRIM21 protein were mixed to prepare a 40.0 µg/mL mixed solution.

E3 ubiquitin-protein ligase TRIM21, sequence (P19474 whole entry): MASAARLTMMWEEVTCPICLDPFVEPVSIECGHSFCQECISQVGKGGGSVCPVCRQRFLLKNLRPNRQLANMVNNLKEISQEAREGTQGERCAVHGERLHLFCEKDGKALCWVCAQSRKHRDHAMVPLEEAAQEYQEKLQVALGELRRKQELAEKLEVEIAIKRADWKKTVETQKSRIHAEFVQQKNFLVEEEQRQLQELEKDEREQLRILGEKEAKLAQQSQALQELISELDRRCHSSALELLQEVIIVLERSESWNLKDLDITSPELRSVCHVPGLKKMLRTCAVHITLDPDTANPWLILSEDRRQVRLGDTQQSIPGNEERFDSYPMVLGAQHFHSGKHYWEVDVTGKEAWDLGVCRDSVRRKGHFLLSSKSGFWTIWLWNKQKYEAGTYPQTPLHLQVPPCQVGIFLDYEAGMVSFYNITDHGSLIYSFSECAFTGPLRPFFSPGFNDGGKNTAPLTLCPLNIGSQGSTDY

Kd	Structure (SMILES)
> 10 µM	Cc1cccc(-c2ccc(C(=O)N(C)CC3CCCCC3)c(S(C)(=O)=O)c2)c1 [US20250388560, Compound 44]
> 10 µM	CN(CC1CCCCC1)C(=O)c1ccc(-c2cccc3occc23)cc1S(C)(=O)=O [US20250388560, Compound 48]
> 10 µM	CN(CC1CCCCC1)C(=O)c1ccc(-c2cccc3[nH]ccc23)cc1S(C)(=O)=O [US20250388560, Compound 50]
> 10 µM	CN(CC1CCCCC1)C(=O)c1ccc(-c2cccc3cc[nH]c23)cc1S(C)(=O)=O [US20250388560, Compound 51]
> 10 µM	CN(CC1CCCCC1)C(=O)c1ccc(-c2ccccc2)cc1S(C)(=O)=O [US20250388560, Compound 58]

The next lines start with the molecule.

Structure (SMILES)	Kd
CSc1ccccc1-c1ccc(C(=O)N(C)CCN2CCOCC2)c(S(C)(=O)=O)c1 [US20250388560, Compound 21]	> 10 µM
CSc1ccccc1-c1ccc(C(=O)N(C)CCN2CCCCC2)c(S(C)(=O)=O)c1 [US20250388560, Compound 22]	> 10 µM
CSc1cc(F)ccc1-c1ccc(C(=O)N(C)CC2CCOCC2)c(S(C)(=O)=O)c1 [US20250388560, Compound 55]	< 0.01 µM
CSc1cc(F)ccc1-c1ccc(C(=O)N(C)Cc2cc[nH]c(=O)c2)c(S(C)(=O)=O)c1 [US20250388560, Compound 56]	< 0.01 µM
COc1cc(F)ccc1-c1ccc(C(=O)N(C)Cc2cc[nH]c(=O)c2)c(S(C)(=O)=O)c1 [US20250388560, Compound 57]	< 0.01 µM
